Consider four compounds from article PMC9783573, “Introduction of a SiFA Moiety into the D-Glutamate Chain of DOTA-PP-F11N Results in Radiohybrid-Based CCK-2R-Targeted Compounds with Improved Pharmacokinetics In Vivo” (Pharmaceuticals, 2022).

Non-standard residues stand in square brackets, D forms with d. Residues, ends and D or L forms follow the SMILES beside them. *: point of attachment. X1 = O=C(O)CN1CCN(CC(=O)O)CCN([C@H](CCC(=O)*)C(=O)O)CCN(CC(=O)O)CC1; Benzoyl(4-SiFtBu2) = CC(C)(C)[Si](F)(c1ccc(C(=O)*)cc1)C(C)(C)C; Nle = CCCC[C@H](N)C(=O)O; dDap = NC[C@@H](N)C(=O)O

In this test the target is T1, CCK-2R (Rattus norvegicus, UniProt P30553).
T1 construct: CCK-2R expressing rat pancreatic cancer cells AR42J (CLS GmbH, Eppelheim,; host or cells: AR42J rat pancreatic cancer cells
T1 sequence (P30553 1-452): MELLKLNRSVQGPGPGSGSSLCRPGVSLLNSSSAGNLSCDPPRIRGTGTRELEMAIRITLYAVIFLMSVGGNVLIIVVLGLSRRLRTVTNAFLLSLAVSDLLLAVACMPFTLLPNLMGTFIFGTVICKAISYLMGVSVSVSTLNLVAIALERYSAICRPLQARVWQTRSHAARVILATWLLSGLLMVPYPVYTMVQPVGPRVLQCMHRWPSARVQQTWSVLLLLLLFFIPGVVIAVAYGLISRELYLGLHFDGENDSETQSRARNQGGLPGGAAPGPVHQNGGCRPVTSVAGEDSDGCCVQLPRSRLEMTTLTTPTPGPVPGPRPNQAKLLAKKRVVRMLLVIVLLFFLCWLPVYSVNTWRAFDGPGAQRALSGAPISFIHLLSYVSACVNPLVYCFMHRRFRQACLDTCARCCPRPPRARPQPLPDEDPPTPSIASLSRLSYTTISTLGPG
In words: CCK-2R-mediated internalisation and total cell uptake on AR42J cells. Type of test: cell-based. To be noted: for Total cell uptake (%) / Internalisation Values (%): % of applied activity, AR42J cells, 37 °C, 0.25 pmol/well; for Internalisation Values (%): corrected for non-specific binding; for Internalisation Values (% of reference): % of the reference [177Lu]Lu-DOTA-PP-F11N. As to the method:
Figure 3 (a) CCK-2R-mediated internalisation ([…]) on AR42J cells as percent (%) of the applied activity (incubation at 37 °C for 1, 2, 4 and 6 h, RPMI 1640, 5 mM L-Gln, 5 mL non-essential amino acids (100×), 10% FCS + 5% BSA (v/v), 3.0 × 10^5 cells/mL/well). (b) CCK-2R mediated internalisation (% of the reference [^177Lu]Lu-DOTA-PP-F11N) of [^177Lu]Lu-CP04 (grey), [^177Lu]Lu-(R)-DOTAGA-rhCCK-9 (red) and [^177Lu]Lu-(R)-DOTAGA-rhCCK-16 (green) after incubation for 6 h.
Internalisation studies of the ^177Lu-labelled conjugates (0.3 pmol) were performed on AR42J cells (3.0 × 10^5 cells per 1 mL/well) at 37 °C for 1, 2, 4 and 6 h (n = 3). Data were corrected for non-specific binding (competition by 10^−4 M [^natLu]Lu-DOTA-PP-F11N).
Cell Culture. CCK-2R expressing rat pancreatic cancer cells AR42J (CLS GmbH, Eppelheim, Germany) were cultivated in monolayers in CELLSTAR ® cell culture flasks acquired from Greiner Bio-One GmbH (Frickenhausen, Germany) at 37 °C in a humidified atmosphere (5% CO2) using a HERAcell 150i-Incubator (Thermo Fisher Scientific Inc., Waltham, United States). As nutrient medium RPMI 1640 medium, supplemented with 5 mM L-Gln 5 mL non-essential amino acids (100×) and 10% FCS, was used. Furthermore, a Dulbecco’s PBS solution with 0.1% EDTA (v/v) was applied to detach the cells for cell passaging. The detached cells were counted using a Neubauer hemocytometer ( Paul Marienfeld, Lauda-Königshofen, Germany). In addition, all operations under sterile conditions were accomplished using a MSC-Advantage safety workbench (Thermo Fisher Scientific Inc., Waltham, United States). […]
Internalisation Studies. For the determination of the internalisation kinetics of the various peptides, AR42J cells (3.0 × 10^5 cells/well) were seeded into polylysine coated 24-well plates adding 1 mL of nutrient medium. Afterwards, the cells were incubated for 24 ± 2 h at 37 °C in a humidified atmosphere […]
On the day of the experiment, the medium was removed, and each well was washed with nutrient medium (300 µL). Afterwards 200 µL of nutrient medium, 25 µL of the 177Lu-labeled peptide (0.3 pmol, n = 6) and either 25 µL of nutrient medium for internali sation studies (n = 3) or 25 µL of [natLu]Lu-DOTA-PP-F11N ([…]) for competition studies (n = 3) were added. Thereafter, the assay was incubated for various time points (1, 2, 4and 6 h) at 37 °C in a humidified atmosphere (5% CO2). After incubation, the cells were put on ice for at least 1 min to stop internalisation kinetics and the supernatant was collected. Then, the cells were washed with an ice-cold nutrient medium (300 µL) and both fractions were unified. For the acid wash, 300 µL of an ice-cold glycine buffer ([…] lysis of the cells with NaOH (300 μL, 1 N) for 15 min, the respective wells were washed with NaOH (300 μL, 1 N) and both fractions were unified. The radioactivity of the supernatant, the acid wash and the lysed fractions were quantified using a γ-counter.

In the case of `CCCC[C@H](NC(=O)[C@H](Cc1c[nH]c2ccccc12)NC(=O)CNC(=O)[C@H](Cc1ccc(O)cc1)NC(=O)[C@H](C)NC(=O)[C@@H](CCC(=O)O)NC(=O)[C@@H](CCC(=O)O)NC(=O)[C@@H](CCC(=O)O)NC(=O)[C@@H](CCC(=O)O)NC(=O)[C@@H](CCC(=O)O)NC(=O)[C@@H](CCC(=O)O)NC(=O)[C@@H](CCC(=O)O)NC(=O)[C@@H](CCC(=O)O)NC(=O)[C@@H](CNC(=O)c1ccc([Si](F)(C(C)(C)C)C(C)(C)C)cc1)NC(=O)CC[C@H](C(=O)O)N1CCN(CC(=O)O)CCN(CC(=O)O)CCN(CC(=O)O)CC1)C(=O)N[C@@H](CC(=O)O)C(=O)N[C@@H](Cc1ccccc1)C(N)=O` [[nat/177Lu]Lu-(R)-DOTAGA-rhCCK-9, metal not drawn] (X1-[dDap](Benzoyl(4-SiFtBu2))[dE][dE][dE][dE][dE][dE][dE][dE]AYGW[Nle]DF-NH2), the “Total cell uptake (%)” value stood at 2.25 ± 0.23% (1 h), 3.46 ± 0.56% (2 h), 8.31 ± 0.59% (4 h) and 13.4 ± 0.7% (6 h). Further, the “Internalisation Values (%)” value is, setting by setting: (1 h) 2.08 ± 0.12%; (2 h) 3.44 ± 0.55%; (4 h) 8.01 ± 0.53%; (6 h) 13.2 ± 0.5%. The “Internalisation Values (% of reference)” value (6 h) is 65.7 ± 2.5 % of reference.
Turning to `CSCC[C@H](NC(=O)[C@H](Cc1c[nH]c2ccccc12)NC(=O)CNC(=O)[C@H](Cc1ccc(O)cc1)NC(=O)[C@H](C)NC(=O)[C@@H](CCC(=O)O)NC(=O)[C@@H](CCC(=O)O)NC(=O)[C@@H](CCC(=O)O)NC(=O)[C@@H](CCC(=O)O)NC(=O)[C@@H](CCC(=O)O)NC(=O)[C@@H](CCC(=O)O)NC(=O)CN1CCN(CC(=O)O)CCN(CC(=O)O)CCN(CC(=O)O)CC1)C(=O)N[C@@H](CC(=O)O)C(=O)N[C@@H](Cc1ccccc1)C(N)=O` [[nat/177Lu]Lu-CP04, metal not drawn, reference compound], the “Total cell uptake (%)” value turned out to be 6.00 ± 0.42% (1 h), 10.0 ± 0.4% (2 h) and 16.5 ± 0.9% (4 h). Besides, the “Internalisation Values (%)” value by setting is: (1 h) 5.16 ± 0.44%; (2 h) 9.33 ± 0.36%; (4 h) 15.4 ± 0.7%; (6 h) 20.5 ± 0.5%. Also, the “Internalisation Values (% of reference)” value (6 h) was 91.6 ± 2.4 % of reference.
In the case of `CCCC[C@H](NC(=O)[C@H](Cc1c[nH]c2ccccc12)NC(=O)CNC(=O)[C@H](Cc1ccc(O)cc1)NC(=O)[C@H](C)NC(=O)[C@@H](CCC(=O)O)NC(=O)[C@@H](CCC(=O)O)NC(=O)[C@@H](CCC(=O)O)NC(=O)[C@@H](CCC(=O)O)NC(=O)[C@@H](CCC(=O)O)NC(=O)[C@@H](CCC(=O)O)NC(=O)CN1CCN(CC(=O)O)CCN(CC(=O)O)CCN(CC(=O)O)CC1)C(=O)N[C@@H](CC(=O)O)C(=O)N[C@@H](Cc1ccccc1)C(N)=O` [[nat/177Lu]Lu-DOTA-PP-F11N, metal not drawn, reference compound], the “Total cell uptake (%)” value is on record as 7.03 ± 1.45% (1 h), 10.6 ± 1.5% (2 h), 18.5 ± 2.5% (4 h) and 23.5 ± 1.4% (6 h). For the same compound, the “Internalisation Values (%)” value runs as follows: (1 h) 6.44 ± 0.32%; (2 h) 10.1 ± 0.4%; (4 h) 17.5 ± 1.0%; (6 h) 22.4 ± 0.6%.
As for `CCCC[C@H](NC(=O)[C@H](Cc1c[nH]c2ccccc12)NC(=O)CNC(=O)[C@H](Cc1ccc(O)cc1)NC(=O)[C@H](C)NC(=O)CC[C@@H](NC(=O)CC[C@@H](NC(=O)CC[C@@H](NC(=O)CC[C@@H](NC(=O)CC[C@@H](NC(=O)CC[C@@H](NC(=O)[C@@H](CNC(=O)c1ccc([Si](F)(C(C)(C)C)C(C)(C)C)cc1)NC(=O)CC[C@H](C(=O)O)N1CCN(CC(=O)O)CCN(CC(=O)O)CCN(CC(=O)O)CC1)C(=O)O)C(=O)O)C(=O)O)C(=O)O)C(=O)O)C(=O)O)C(=O)N[C@@H](CC(=O)O)C(=O)N[C@@H](Cc1ccccc1)C(N)=O` [[nat/177Lu]Lu-(R)-DOTAGA-rhCCK-16, metal not drawn], the “Total cell uptake (%)” value came to 8.37 ± 0.07% (1 h), 14.4 ± 1.3% (2 h), 23.6 ± 2.8% (4 h) and 32.8 ± 2.3% (6 h). For the same compound, the “Internalisation Values (%)” value is, setting by setting: (1 h) 7.63 ± 0.13%; (2 h) 14.0 ± 1.3%; (4 h) 23.2 ± 2.7%; (6 h) 32.2 ± 2.1%. For the same compound, the “Internalisation Values (% of reference)” value (6 h) was 135 ± 9 % of reference.
